Test results as given in patent publication US9012499B2, “Pharmaceutical composition comprising oseltamivir phosphate” (Chugai Seiyaku Kabushiki Kaisha, priority 2006, dated 2015).

Legend:
[1] = Color development of sugars and sugar alcohols mixed with oseltamivir phosphate (Example 1); assay type: physicochemical; details: nine parts by weight of test sample and one part of oseltamivir phosphate; for Coloring by mixing with sugars and sugar alcohols, rank of color difference ΔE*, 40° C., 75% RH, one month (open): bottle open; for Coloring by mixing with sugars and sugar alcohols, rank of color difference ΔE*, 60° C. for 2 weeks (sealed): sealed bottle
Experimental: Various samples of sugars and sugar alcohols were mixed with oseltamivir phosphate and the color development was confirmed by the following method. Nine parts by weight of a test sample and one part by weight of oseltamivir phosphate were mixed in a mortar, and the mixture was transferred to a No. 1 standard brown glass bottle (volume: 14 ml) and the bottle was tightly sealed by a polyethylene middle stopper and a polypropylene screw cap. The color of the mixture immediately after mixing was measured by a color difference meter. The mixture was kept in the following two conditions: i) 2 weeks in a 60° C. incubator, or ii) one month in a 40° C. incubator at 75% RH while the bottle was open. Thereafter, the color of the mixture was measured. The color difference before and after the storage ΔE*(CIE L*a*b*) was measured. The measurement of color difference was carried out according to JIS Z-8722, based on 0-45° rear spectrophotometric method using a spectrophotometric color difference meter (SE-2000) (Nippon Denshoku Ltd.).
The A, B and C rank in the table represents ΔE*≦2.5, 2.5<ΔE*≦5.0 and ΔE*>5.0, respectively.

[2] = Color change of wet-granulated sugar alcohol/oseltamivir phosphate formulation after storage (Example 2); assay type: physicochemical; details: 27 g additive + 3 g oseltamivir phosphate, wet granulation with water; 60° C. for 4 weeks under a tight seal
Experimental: Twenty seven grams of a sugar alcohol and 3 g of oseltamivir phosphate were mixed in a mortar, and then kneaded by adding 1 mL of water to carry out the wet granulation. The mixture was dried in a 50° C. constant temperature drying oven for 3 hr to reduce the water content of the formulation to 1% by weight or less. The formulation was kept at 60° C. for 4 weeks under a tight seal and the change of color before and after the storage was measured by a color difference meter.

[3] = Equilibrium water content of sugars and sugar alcohols (DVS-1); assay type: physicochemical; details: 25° C., relative humidity 70%
Experimental: Sugars and sugar alcohols (excipients) used in the pharmaceutical composition of the present invention have a characteristic that their equilibrium water content is 1% by weight or less at 25° C. and at 70% relative humidity. That is, the equilibrium water content may be obtained by leaving the samples (sugars or sugar alcohols) in the air that has been held in the predetermined condition of 25° C. and 70% relative humidity for a long time, and then by measuring when the water content in the samples become constant.
(1) Method for Measuring Equilibrium Water Content
Equilibrium water content (25° C., relative humidity 70%) of sugars and sugar alcohols can be measured by the method using a DVS-1 (Surface Measurement Systems Ltd.). The condition for measurement is as follows.
Quantity of samples: 50 to 100 mg (intending to scale 75 mg)
Measurement temperature: 25±1° C.
Setting range of relative humidity: 0 to 100% RH
Measurement step of relative humidity: up to 10%
Hold time: If change of the weight is less than 0.02%, the measurement enters next step, but the change is not stable, the step lasts up to 120 min.

[4] = system: neuraminidase of influenza virus; details: Patent Document 1 (WO1998/007685); cited from earlier work

In the case of `OC[C@H]1O[C@H](O[C@H]2[C@H](O)[C@@H](O)C(O)O[C@@H]2CO)[C@H](O)[C@@H](O)[C@@H]1O` (mixture of isomers) [Maltose], the “Coloring by mixing with sugars and sugar alcohols, rank of color difference ΔE*, 40° C., 75% RH, one month (open)” value [1] is reported as “C (ΔE*>5.0)” and the “Coloring by mixing with sugars and sugar alcohols, rank of color difference ΔE*, 60° C. for 2 weeks (sealed)” value [1] is reported as “C (ΔE*>5.0)”.
For `OC[C@@H](O)[C@@H](O)[C@H](O)[C@H](O)CO` [D-Mannitol], the “Coloring by mixing with sugars and sugar alcohols, rank of color difference ΔE*, 40° C., 75% RH, one month (open)” value [1] was “A (ΔE*≦2.5)”, the “Coloring by mixing with sugars and sugar alcohols, rank of color difference ΔE*, 60° C. for 2 weeks (sealed)” value [1] was “A (ΔE*≦2.5)” and the “Color difference ΔE*” value [2] was 3.4.
In the case of `OC[C@@H](O)[C@@H](O)[C@H](O)[C@@H](O)CO` [D-sorbitol 1, D-sorbitol], the “Color difference ΔE*” value [2] is reported as 14.6.
With `OC[C@@H](O)[C@@H](O)[C@H](O)[C@@H](O)CO` [D-sorbitol 2, D-sorbitol] the “Color difference ΔE*” value [2] was 11.2.
In the case of `OC[C@@H](O)[C@@H](O)[C@H](O)[C@@H](O)CO` [D-sorbitol], the “Coloring by mixing with sugars and sugar alcohols, rank of color difference ΔE*, 40° C., 75% RH, one month (open)” value [1] is reported as “C (ΔE*>5.0)”, the “Coloring by mixing with sugars and sugar alcohols, rank of color difference ΔE*, 60° C. for 2 weeks (sealed)” value [1] is reported as “C (ΔE*>5.0)” and the Equilibrium water content [3] is reported as 1.7%.
With `OC[C@@H](O)[C@@H](O)CO` [Erythritol] the “Coloring by mixing with sugars and sugar alcohols, rank of color difference ΔE*, 40° C., 75% RH, one month (open)” value [1] was “B (2.5<ΔE*≦5.0)”, the “Coloring by mixing with sugars and sugar alcohols, rank of color difference ΔE*, 60° C. for 2 weeks (sealed)” value [1] was “A (ΔE*≦2.5)” and the “Color difference ΔE*” value [2] was 4.7. For the same compound, the Equilibrium water content [3] was “*Equilibrium water content (25° C., relative humidity 70%) is 0.1%, the contents of glucose and mannose as impurities are <0.001% and 0.001%, respectively” and the Equilibrium water content ([3]; listed as erythritol) was 0.1%.
In the case of `CCOC(=O)C1=C[C@@H](OC(CC)CC)[C@H](NC(C)=O)[C@@H](N)C1.O=P(O)(O)O` [Oseltamivir phosphate, (−)-ethyl (3R,4R,5S)-4-acetamido-5-amino-3-(1-ethylpropoxy)-cyclohex-1-ene-1-carboxylate monophosphate], the “Coloring by mixing with sugars and sugar alcohols, rank of color difference ΔE*, 40° C., 75% RH, one month (open)” value [1] is given as “A (ΔE*≦2.5)”, the “Coloring by mixing with sugars and sugar alcohols, rank of color difference ΔE*, 60° C. for 2 weeks (sealed)” value [1] is given as “A (ΔE*≦2.5)” and the “Inhibitory activity against neuraminidase of influenza virus” value [4] is given as “potent inhibitory activity”.
With `OC[C@H]1O[C@@](CO)(O[C@H]2O[C@H](CO)[C@@H](O)[C@H](O)[C@H]2O)[C@@H](O)[C@@H]1O` [Sucrose] the “Coloring by mixing with sugars and sugar alcohols, rank of color difference ΔE*, 40° C., 75% RH, one month (open)” value [1] was “B (2.5<ΔE*≦5.0)” and the “Coloring by mixing with sugars and sugar alcohols, rank of color difference ΔE*, 60° C. for 2 weeks (sealed)” value [1] was “A (ΔE*≦2.5)”.
For `OC[C@@H](O)[C@H](O)[C@@H](O)CO` [Xylitol], the “Coloring by mixing with sugars and sugar alcohols, rank of color difference ΔE*, 40° C., 75% RH, one month (open)” value [1] was “C (ΔE*>5.0)” and the “Coloring by mixing with sugars and sugar alcohols, rank of color difference ΔE*, 60° C. for 2 weeks (sealed)” value [1] was “B (2.5<ΔE*≦5.0)”.
